Paper PMC5978884, “Dissection of the antimicrobial and hemolytic activity of Cap18: Generation of Cap18 derivatives with enhanced specificity” (PLoS ONE, 2018)
Where no end group is shown, it is not given here.

Tests used:
[1] = tested on: Yersinia ruckeri 392/2003; experiment: microbe, parasite or virus in culture; format: cell-based
Description: (§1) All strains were grown in Mueller-Hinton-II medium, except L. monocytogenes which was grown in BHI medium and L. lactis which was grown in MRS medium. Incubation took place aerobically at 37°C, except for Y. ruckeri and A. salmonicida, which were grown aerobically at RT (20 °C), and L. lactis grown aerobically at 30°C. All plates were incubated for 16–21 hours.
(§2) The minimum inhibitory concentrations (MICs) of the AMPs were measured in 96-well microtiter plates according the Clinical and Laboratory Standards Institute (CLSI, formerly National Committee for Clinical Laboratory Standards [NCCLS]). Briefly, liquid Mueller-Hinton-II medium containing increasing concentrations of AMPs is inoculated with a defined number of cells (approx. 10^5 CFUs/ml) in 96-well microtiter plates (polypropylene), whereas each plate also includes a positive growth control and a negative control (sterile control). The range of peptide concentrations analyzed was 0.125–64 μg/ml for the high purity peptides and 0.06–32 μg/ml for peptides of the variant library. After incubation, the MIC is determined by the lowest concentration showing no visible growth. All plates were incubated for 16–20 hours. The MIC of the reference antibiotics was determined by the use of Sensititre panels (Trek Diagnostic Systems Ltd, East Grinstead, UK).

[2] = tested on: Aeromonas salmonicida ATCC33658; experiment: microbe, parasite or virus in culture; format: cell-based; conditions: ATCC33658
Description: as §1, §2

[3] = tested on: Salmonella enterica serovar Typhimurium LT2; experiment: microbe, parasite or virus in culture; format: cell-based; conditions: LT2
Description: as §1, §2

[4] = tested on: Listeria monocytogenes N22-2; format: cell-based
Description: as §1, §2

[5] = tested on: Escherichia coli ATCC25922; format: cell-based
Description: as §1, §2

[6] = tested on: Lactococcus lactis IL1403; format: cell-based
Description: as §1, §2

[7] = tested on: Pseudomonas aeruginosa ATCC27853; format: cell-based
Description: as §1, §2

[8] = tested on: Enterococcus faecalis ATCC29212; format: cell-based
Description: as §1, §2

[9] = tested on: all the tested bacterial species including Gram-positive and Gram-negative bacteria
Description: as §2, with “The range of peptide concentrations analyzed was 0.125–64 μg/ml for the high purity peptides and 0.06–32 μg/ml for peptides of the variant library.” left out
To identify Cap18 variant peptides with changed species specificity, the antimicrobial screening data of Y. ruckeri, A. salmonicida, S. Typhimurium and L. lactis was compared.
In addition, three Cap18 derivatives harboring either a I13F, I13M or G26T substitution were ordered as positive controls. […] The antimicrobial activity of the highly pure peptides was determined by measuring the MIC value of each derivative against the four test strains Y. ruckeri, A. salmonicida, S.Typhimurium and L. lactis (Table 6). […] In addition to the additional screening strains, a wider range of relevant pathogens including Gram-positive and Gram-negative bacteria was analyzed for targeted antimicrobial activity.

MIC Y. ruckeri [1] [µg/mL]	MIC Y. ruckeri 392/2003 [1] [µg/mL]	MIC A. salmonicida [2] [µg/mL]	MIC A. salmonicida ATCC33658 [2] [µg/mL]	MIC S. Typhimurium [3] [µg/mL]	MIC S. Typhimurium LT2 [3] [µg/mL]	MIC L. monocytogenes N22-2 [4] [µg/mL]	MIC E. coli ATCC25922 [5] [µg/mL]	MIC L. lactis IL1403 [6] [µg/mL]	MIC P. aeruginosa ATCC27853 [7] [µg/mL]	MIC E. faecalis ATCC29212 [8] [µg/mL]	MIC against all the tested bacterial species [9] [µg/mL]	MIC L. lactis [6] [µg/mL]	Sequence
4	16	4	8 to 16	4	16	8 to 16	16	≥64	16	16	–	–	GLRKRLRKFRNKIKEILKKIGQKIQGLLPKLAPRTDY [Peptide 12]
4	16	4	16	4	16	8 to 16	16	≥64	16 to 32	16	–	–	GLRKRLRKFRNKIKELLKKIGQKIQGLLPKLAPRTDY [Peptide 13]
–	–	–	≥64	–	–	≥64	–	≥64	≥64	≥64	≥ 32	–	GLRKRLRKFRNKIKEKDKKIGQKIQGLLPKLAPRTDY [Peptide 16]
–	64	8	8 to 16	4	8	32	8	≥64	≥64	32	–	8	GLRKRPRKFRNKIKEKLKKIGQKIQGLLPKLAPRTDY [Peptide 1]
–	2	–	4	–	4	4	4 to 8	2	4 to 8	8 to 16	–	–	GLRKRLRKFRNKFKEKLKKIGQKIQGLLPKLAPRTDY [Peptide 4]

Continued, sequence first:

Sequence	MIC Y. ruckeri [1] [µg/mL]	MIC Y. ruckeri 392/2003 [1] [µg/mL]	MIC A. salmonicida [2] [µg/mL]	MIC A. salmonicida ATCC33658 [2] [µg/mL]	MIC S. Typhimurium [3] [µg/mL]	MIC S. Typhimurium LT2 [3] [µg/mL]	MIC L. monocytogenes N22-2 [4] [µg/mL]	MIC E. coli ATCC25922 [5] [µg/mL]	MIC L. lactis IL1403 [6] [µg/mL]	MIC P. aeruginosa ATCC27853 [7] [µg/mL]	MIC E. faecalis ATCC29212 [8] [µg/mL]	MIC against all the tested bacterial species [9] [µg/mL]	MIC L. lactis [6] [µg/mL]
GLRKRLRKFRNKIKEKLKKIGQKIQGPLPKLAPRTDY [Peptide 31]	16	32	16	16	4	8	32	≥64	32	8	≥64	–	–
GLRKRLRKFRNKIKEKLKKIGQKSQGLLPKLAPRTDY [Peptide 29]	16	16	8	8	4	8	16 to 32	32 to 64	32	8 to 16	≥64	–	–
GLRKRLRKFRNKIKEKLKKIGQKNQGLLPKLAPRTDY [Peptide 28]	–	–	–	–	–	32	32	–	–	–	–	≥ 32	–
GLRKRLRKFRNKIKEKLKKIGQKIQTLLPKLAPRTDY [Peptide 30]	–	2 to 4	–	4	–	4 to 8	4	4 to 8	2	8	8	–	–
GLRKRLRKFRNKQKEKLKKIGQKIQGLLPKLAPRTDY [Peptide 7]	–	8	4	8	4	4 to 8	16	16 to 32	≥64	8	32	–	–
GLRKRLRKFRNKIKEKLKKILQKIQGLLPKLAPRTDY [Peptide 24]	4	16	4	16	8	16	16	16	≥64	16	16	–	–
GLRKRLRKFRNKIKEFLKKIGQKIQGLLPKLAPRTDY [Peptide 11]	4	16 to 32	4	16 to 32	8	16	16	16	≥64	32	16	–	–
GLRKRLRKFRNKIKEKPKKIGQKIQGLLPKLAPRTDY [Peptide 18]	–	–	–	≥64	–	≥64	≥64	≥64	≥64	≥64	≥64	≥ 32	–
GLRKRLRKFRNKIKEYLKKIGQKIQGLLPKLAPRTDY [Peptide 15]	8	8 to 16	4	16	8	16	8 to 16	16	≥64	16	16	–	–
GLRKRLRKFRNKIKEKLPKIGQKIQGLLPKLAPRTDY [Peptide 19]	–	32	2	2 to 4	4	4	32 to 64	8 to 16	32	16	≥64	–	–
GLRKRLRKFRNKSKEKLKKIGQKIQGLLPKLAPRTDY [Peptide 8]	–	8 to 16	2	4	4	8	32	16	≥64	8 to 16	≥64	–	8
GLRKRLRKFRNKIKEKKKKIGQKIQGLLPKLAPRTDY [Peptide 17]	–	≥64	4	16 to 32	4	16	16 to 32	≥64	≥64	8	≥64	–	–
